The results in this text go back to patent US10377743B2, “Inhibitors of RAS and methods of use thereof” (Araxes Pharma LLC, priority 2016, dated 2019).

Each structure is given as a SMILES string.

The target in this assay is T1, KRAS G12C 1-169, his-tagged protein, GDP-loaded (Homo sapiens, UniProt P01116, G12C).
T1 construct: KRAS G12C 1-169, his-tagged protein, GDP-loaded
The assay can be described thus: Biochemical assay: covalent binding (modification %) to KRAS G12C by mass spectrometry. Particulars: 2 hour incubation period, 8 μM compound (compounds 21-92). Here is the method:
Test compounds were prepared as 10 mM stock solutions in DMSO (Fisher cat# BP-231-100). KRAS G12C 1-169, his-tagged protein, GDP-loaded was diluted to 2 μM or 0.5 μM in buffer (20 mM Hepes, 150 mM NaCl, 1 mM MgCl2). Compounds were tested for activity as follows:
Compounds were diluted to 50× final test concentration in DMSO in 96-well storage plates. Compound stock solutions were vortexed before use and observed carefully for any sign of precipitation. Dilutions were as follow: • For 100 μM final compound concentration, compounds were diluted to 5000 μM (5 μL 10 mM compound stock+5 μL DMSO and mixed well by pipetting. • For 30 μM final compound concentration, compounds were diluted to 1500 μM (3 μL 10 mM compound stock+17 μL DMSO) and mixed well by pipetting. • For 10 μM final compound concentration, compounds were diluted to 500 μM (2 μL 10 mM compound stock+38 μL DMSO) and mixed well by pipetting. 49 μL of the stock protein solution was added to each well of a 96-well PCR plate (Fisher cat#1423027). 1 μl of the diluted 50× compounds were added to appropriate wells in the PCR plate using 12-channel pipettor. Reactions were mixed carefully and thoroughly by pipetting up/down with a 200 μL multi-channel pipettor. The plate was sealed well with aluminum plate seal, and stored in drawer at room temperature for 10 minutes, 30 minutes, 2 hours or 24 hours. 5 μL of 2% formic acid (Fisher cat# A117) in de-ionized H2O was then added to each well followed by mixing with a pipette. The plate was then resealed with aluminum seal and stored on dry ice until analyzed as described below.
The above described assays were analyzed by mass spectrometry according to one of the following two procedures:
The MS instrument is set to positive polarity, 2 GHz resolution, and low mass (1700) mode and allowed to equilibrate for 30 minutes. The instrument is then calibrated, switched to acquisition mode and the appropriate method loaded.
After another 30 minute equilibration time, a blank batch (i.e., buffer) is run to ensure equipment is operating properly. The samples are thawed at 37° C. for 10 minutes, briefly centrifuged, and transfer to the bench top. Wells A1 and H12 are spiked with 1 μL 500 μM internal standard peptide, and the plates centrifuged at 2000×g for 5 minutes. The method is then run and masses of each individual well recorded.
The masses (for which integration data is desired) for each well are pasted into the platemap and exported from the analysis. Masses for the internal standards are exported as well. The data at 50 ppm is extracted for the +19 charge state, and identity of well A1 is assigned using the internal standard spike and integrated. Peak data is exported as a TOF list and the above steps are repeated individually, for the +20, 21, 22, 23, 24, and 25 charge states.
The masses and peak intensities of KRAS G12C protein species were measured using a Dionex RSLCnano system (Thermo Scientific) connected to a Q Exactive Plus mass spectrometer (Thermo Scientific).
[…] of sample was each loaded onto a Aeris™ 3.6 μm WIDEPORE C4 200 Å, LC Column 50×2.1 mm column maintained at 40° C. at a flow rate of 600 μL/min with 20% Solvent A (0.1% formic acid in H2O) and 80% Solvent B (0.1% formic acid in acetonitrile). The liquid chromatography conditions were 20% solvent B for 1 minute, 20% to 60% solvent B for 1.5 minutes, 60% to 90% solvent for 0.5 minute, 90% solvent B for 0.2 minute, 90% to 20% solvent B for 0.2 minute, and then equilibrated for 1.6 minute before the following sample injection. The flow rate was maintained at 600 μL/min throughout the sample analysis.
The mass spectrometer was operated in profile mode at a resolution of 17500, 5 microscans, using 50 msec max injection time and an AGC target of 1×10^6, and a full mass range from 800-1850 m/z was recorded. The HCD trapping gas was optimized for maximum sensitivity for intact proteins. […]
Turning to `C=CC(=O)N1CC(N2Cc3c(F)cc(-c4cc(O)ccc4Cl)cc3C2=O)C1` [Compound 26, 2-(1-acryloylazetidin-3-yl)-6-(2-chloro-5-hydroxyphenyl)-4-fluoroisoindolin-1-one], the Binding % entry is given as “++ (++ indicates binding activity from 10 to 50%)”. The result for `C=CC(=O)N1CC(N2Cc3c(F)cc(-c4cc(O)cc5ccccc45)cc3C2=O)C1` [Compound 27, 2-(1-acryloylazetidin-3-yl)-4-fluoro-6-(3-hydroxynaphthalen-1-yl)isoindolin-1-one] reads “+++ (+++ indicates binding activity greater than 50%)”; that for `C=CC(=O)N1CC(N2Cc3c(cc(-c4cc(O)cc5ccccc45)cc3C(F)(F)F)C2=O)C1` [Compound 28, 2-(1-acryloylazetidin-3-yl)-6-(3-hydroxynaphthalen-1-yl)-4-(trifluoromethyl)isoindolin-1-one], “++ (++ indicates binding activity from 10 to 50%)”.

In the case of `C=CC(=O)N1CC(N2Cc3cc(C)c(-c4cc(O)ccc4Cl)cc3C2=O)C1` [Compound 29, 2-(1-acryloylazetidin-3-yl)-6-(2-chloro-5-hydroxyphenyl)-5-methylisoindolin-1-one], the Binding % entry is on record as “++ (++ indicates binding activity from 10 to 50%)”.

As to `C=CC(=O)N1CC(N2Cc3cc(C)c(-c4cc(O)cc5ccccc45)cc3C2=O)C1` [Compound 30, 2-(1-acryloylazetidin-3-yl)-6-(3-hydroxynaphthalen-1-yl)-5-methylisoindolin-1-one], the Binding % entry is “+++ (+++ indicates binding activity greater than 50%)”.

For the molecule `C=CC(=O)N1CC(N2CCc3ccc(-c4cc(O)cc5ccccc45)cc3CC2)C1` [Compound 31, 1-(3-(7-(3-hydroxynaphthalen-1-yl)-4,5-dihydro-1H-benzo[d]azepin-3(2H)-yl)azetidin-1-yl)prop-2-en-1-one], the Binding % result is on record as “+ (+ indicates binding activity up to 10%)”. With `C=CC(=O)N1CC(N2C(=O)c3ccc(-c4c(C)ccc5[nH]ncc45)cc3C2=O)C1` [Compound 32, 2-(1-acryloylazetidin-3-yl)-5-(5-methyl-1H-indazol-4-yl)isoindoline-1,3-dione] the entry was “+ (+ indicates binding activity up to 10%)”; with `C=CC(=O)N1CC(N2Cc3ccc(-c4cc(O)cc(F)c4)cc3C2=O)C1` [Compound 33, 2-(1-acryloylazetidin-3-yl)-6-(3-fluoro-5-hydroxyphenyl)isoindolin-1-one], “+ (+ indicates binding activity up to 10%)”. As for `C=CC(=O)N1CC(N2Cc3sc(-c4cc(O)cc5ccccc45)cc3C2=O)C1` [Compound 34, 5-(1-acryloylazetidin-3-yl)-2-(3-hydroxynaphthalen-1-yl)-5,6-dihydro-4H-thieno[2,3-c]pyrrol-4-one], the Binding % entry is recorded as “+++ (+++ indicates binding activity greater than 50%)”. In the case of `C=CC(=O)N1CC(N2CCc3ccc(-c4cc(O)cc5ccccc45)cc3C2=O)C1` [Compound 35, 2-(1-acryloylazetidin-3-yl)-7-(3-hydroxynaphthalen-1-yl)-3,4-dihydroisoquinolin-1(2H)-one], the Binding % result is “+++ (+++ indicates binding activity greater than 50%)”. The result for `C=CC(=O)N1CC(N2CCc3ccc(-c4c(C)ccc5[nH]ncc45)cc3C2=O)C1` [Compound 36, 2-(1-acryloylazetidin-3-yl)-7-(5-methyl-1H-indazol-4-yl)-3,4-dihydroisoquinolin-1(2H)-one] reads “+ (+ indicates binding activity up to 10%)”. With `C=CC(=O)N1CC(N2CCc3ccc(-c4c(C)ccc5[nH]ncc45)cc3CC2)C1` [Compound 37, 1-(3-(7-(5-methyl-1H-indazol-4-yl)-4,5-dihydro-1H-benzo[d]azepin-3(2H)-yl)azetidin-1-yl)prop-2-en-1-one] the entry was “+ (+ indicates binding activity up to 10%)”; with `C=CC(=O)N1CC(N2Cc3ccc(-c4c(C)ccc5[nH]ncc45)cc3CC2=O)C1` [Compound 38, 2-(1-acryloylazetidin-3-yl)-6-(5-methyl-1H-indazol-4-yl)-1,2-dihydroisoquinolin-3(4H)-one], “++ (++ indicates binding activity from 10 to 50%)”; with `C=CC(=O)N1CC(N2Cc3ccc(-c4c(C)ccc5cn[nH]c45)cc3CC2=O)C1` [Compound 39, 2-(1-acryloylazetidin-3-yl)-6-(6-methyl-1H-indazol-7-yl)-1,2-dihydroisoquinolin-3(4H)-one], “++ (++ indicates binding activity from 10 to 50%)”. With `C=CC(=O)N1CC(N2Cc3ccc(-c4cc(O)ccc4Cl)cc3CC2=O)C1` [Compound 40, 2-(1-acryloylazetidin-3-yl)-6-(2-chloro-5-hydroxyphenyl)-1,2-dihydroisoquinolin-3(4H)-one] the entry was “+++ (+++ indicates binding activity greater than 50%)”; with `C=CC(=O)N1CC(N2Cc3ccc(-c4c(O)cccc4F)cc3CC2=O)C1` [Compound 41, 2-(1-acryloylazetidin-3-yl)-6-(2-fluoro-6-hydroxyphenyl)-1,2-dihydroisoquinolin-3(4H)-one], “++ (++ indicates binding activity from 10 to 50%)”; with `C=CC(=O)N1CC(N2Cc3sc(-c4c(C)ccc5[nH]ncc45)cc3C2=O)C1` [Compound 42, 5-(1-acryloylazetidin-3-yl)-2-(5-methyl-1H-indazol-4-yl)-5,6-dihydro-4H-thieno[2,3-c]pyrrol-4-one], “++ (++ indicates binding activity from 10 to 50%)”. Consider `C=CC(=O)N1CC(N2Cc3c(O)cc(-c4cc(O)cc5ccccc45)cc3C2=O)C1` [Compound 43, 2-(1-acryloylazetidin-3-yl)-4-hydroxy-6-(3-hydroxynaphthalen-1-yl)isoindolin-1-one], for which the Binding % entry is given as “+++ (+++ indicates binding activity greater than 50%)”. With `C=CC(=O)N1CC(N2Cc3c(O)cc(-c4c(C)ccc5[nH]ncc45)cc3C2=O)C1` [Compound 44, 2-(1-acryloylazetidin-3-yl)-4-hydroxy-6-(5-methyl-1H-indazol-4-yl)isoindolin-1-one] the entry was “++ (++ indicates binding activity from 10 to 50%)”; with `C=CC(=O)N1CC(N2Cc3ccc(Oc4ccccc4)cc3C2=O)C1` [Compound 45, 2-(1-acryloylazetidin-3-yl)-6-phenoxyisoindolin-1-one], “+ (+ indicates binding activity up to 10%)”. The result for `C=CC(=O)N1CC(N2Cc3ccc(-c4cccc5[nH]cnc45)cc3C2=O)C1` [Compound 46, 2-(1-acryloylazetidin-3-yl)-6-(1H-benzo[d]imidazol-4-yl)isoindolin-1-one] reads “+ (+ indicates binding activity up to 10%)”; that for `C=CC(=O)N1CC(N2Cc3ccc(-c4ccccc4C(N)=O)cc3C2=O)C1` [Compound 47, 2-(2-(1-acryloylazetidin-3-yl)-3-oxoisoindolin-5-yl)benzamide], “+ (+ indicates binding activity up to 10%)”. With `C=CC(=O)N1CC(N2Cc3ccc(-c4cccc5[nH]ncc45)cc3C2=O)C1` [Compound 48, 2-(1-acryloylazetidin-3-yl)-6-(1H-indazol-4-yl)isoindolin-1-one], the Binding % entry is “+ (+ indicates binding activity up to 10%)”.

As to `C=CC(=O)N1CC(N2Cc3ccc(-c4cc(O)cc(Cl)c4)cc3C2=O)C1` [Compound 49, 2-(1-acryloylazetidin-3-yl)-6-(3-chloro-5-hydroxyphenyl)isoindolin-1-one], the Binding % entry is on record as “++ (++ indicates binding activity from 10 to 50%)”.
